Measured values from PMC12186843, “Targeting GABAergic Hypofunction Associated with Schizophrenia: Identification of α1β2γ2GABA‑A Receptor Ligands with Neuroprotective and Antipsychotic Properties” (ACS Chemical Neuroscience, 2025).
Values joined by “and” are separate entries in the source; they are usually repeats but may differ in a detail not shown here. Equal entries are not always repeated. Structures can show the parent of a compound that is named as a salt.

target: GABA-A receptor; experiment: Radioligand binding at the GABA-A receptor; parameters: species or system rat; conditions: mean of two-three independent experiments; read-out: GABA-A Ki ± SEM
Protocol: The study was conducted in accordance with previously established protocols, and performed in duplicate. Rat brains were homogenized and prepared following the described methodologies. The assay was carried out directly on 96-well microplates containing 50 mM Tris-HCl buffer (pH 7.4) in a total volume of 300 μL. […] To determine nonspecific binding, 100 μM GABA was included in the mixture. The 96-well microplates were incubated at 0 °C for 10 min, followed by rapid filtration through FilterMate B glass fiber filters (PerkinElmer, USA) using a Harvester-96 MACH III FM (Tomtec, USA). The filters were gently dried in a microwave and sealed in plastic bags (PerkinElmer, USA). Each filter was then immersed in 10 mL of Ultima Gold MV liquid scintillation cocktail (PerkinElmer, USA). […] Ki values were calculated using the Cheng and Prusoff equation, and statistical analyses were conducted using GraphPad Prism (version 4.0, San Diego, CA, USA)

Row | Compound | Ki
1 | Cc1ccc2nc(-c3ccc(F)cc3)c(CC(=O)N3CCN(C)CC3)n2c1 [Compound 4, 2-[2-(4-Fluorophenyl)-6-methylimidazo[1,2-a]pyridin-3-yl]-1-(4-methylpiperazin-1-yl)ethan-1-one formate salt] | 0.278 ± 0.043 µM
2 | Cc1ccc2nc(-c3ccc(F)cc3)c(CC(=O)N3CCC(C)CC3)n2c1 [Compound 7, 2-[2-(4-Fluorophenyl)-6-methylimidazo[1,2-a]pyridin-3-yl]-1-(4-methylpiperidin-1-yl)ethan-1-one] | 0.204 ± 0.0206 µM
3 | Cc1ccc2nc(-c3ccc(F)cc3)c(CC(=O)N3CCN(C(C)C)CC3)n2c1 [Compound 8, 2-[2-(4-Fluorophenyl)-6-methylimidazo[1,2-a]pyridin-3-yl]-1-[4-(propan-2-yl)piperazin-1-yl]ethan-1-one] | 5.23 ± 0.511 µM
4 | Cc1ccc2nc(-c3ccc(F)cc3)c(CC(=O)N3CCN(C4CC4)CC3)n2c1 [Compound 9, 1-(4-Cyclopropylpiperazin-1-yl)-2-[2-(4-fluorophenyl)-6-methylimidazo[1,2-a]pyridin-3-yl]ethan-1-one] | 1.34 ± 0.046 µM
5 | Cc1ccc2nc(-c3ccc(F)cc3)c(CC(=O)N3CCN(CC(C)C)CC3)n2c1 [Compound 10, 2-[2-(4-Fluorophenyl)-6-methylimidazo[1,2-a]pyridin-3-yl]-1-[4-(2-methylpropyl)piperazin-1-yl]ethan-1-one] | 3.33 ± 0.373 µM
6 | Cc1ccc2nc(-c3ccc(F)cc3)c(CC(=O)N3CCN(C(C)(C)C)CC3)n2c1 [Compound 11, 1-(4-tert-Butylpiperazin-1-yl)-2-[2-(4-fluorophenyl)-6-methylimidazo[1,2-a]pyridin-3-yl]ethan-1-one] | 7.82 ± 1.72 µM
7 | Cc1ccc2nc(-c3ccc(F)cc3)c(CC(=O)N3CC4CCCCC4C3)n2c1 (centres unmarked) [Compound 12, 2-[2-(4-Fluorophenyl)-6-methylimidazo[1,2-a]pyridin-3-yl]-1-(octahydro-1H-isoindol-2-yl)ethan-1-one] | 0.517 ± 0.0612 µM
8 | Cc1ccc2nc(-c3ccc(F)cc3)c(CC(=O)N3CCCCCC3)n2c1 [Compound 13, 1-(Azepan-1-yl)-2-(2-(4-fluorophenyl)-6-methylimidazo[1,2-a]pyridin-3-yl)ethan-1-one] | 0.453 ± 0.0593 µM
9 | Cc1ccc2nc(-c3ccc(F)cc3)c(CC(=O)N3CCSC3(C)C)n2c1 [Compound 14, 1-(2,2-Dimethyl-1,3-thiazolidin-3-yl)-2-[2-(4-fluorophenyl)-6-methylimidazo[1,2-a]pyridin-3-yl]ethan-1-one] | 0.551 µM
10 | Cc1ccc2nc(-c3ccc(F)cc3)c(CC(=O)NC3CCNC3)n2c1 (centres unmarked) [Compound 16, 2-[2-(4-Fluorophenyl)-6-methylimidazo[1,2-a]pyridin-3-yl]-N-(pyrrolidin-3-yl)acetamide] | < 0.2 µM and 0.14 µM
11 | CN1C(=O)CN=C(c2ccccc2)c2cc(Cl)ccc21 [diazepam, reference compound] | 0.0056 ± 0.0007 µM

tested on: not listed separately; experiment: PAMPA permeability assay; assay type: in vitro ADME; conditions: PBS pH 7.4, 100 μM, 5 h, zolpidem tested as tartrate
Protocol: PAMPA. The precoated PAMPA Plate System Gentest, obtained from Corning (Tewksbury, MA, USA), was used for the permeability study. The system includes a 96-well receiver filter plate precoated with structured phospholipid layers and a matching donor microplate. Stock solutions of the test compounds and reference drugs were prepared in PBS buffer (pH 7.4) at a final concentration of 100 μM. Each compound solution (200 μL) was added to the donor wells and incubated at room temperature for 5 h. The quantity of molecules that penetrated from the donor wells to the acceptor wells through the phospholipid membrane was determined using UPLC-MS spectrometry (Waters ACQUITY TQD system with the TQ Detector, Waters, Milford, USA) with an internal standard. Permeability coefficients (Pe, cm/s) were calculated according to the formula provided by the manufacturer.

Row | Compound | Permeability Pe ± SD
12 | CCN1CCCC1CNC(=O)c1cc(S(N)(=O)=O)ccc1OC (centres unmarked) [sulpiride, reference compound] | 0.016 ± 0.003 ·10^–6 cm/s

same assay, conditions: pH 7.4, PAMPA, PBS pH 7.4, 100 μM, zolpidem tested as tartrate, read-out: Permeability Pe ± SD

Row | Compound | Papp at 5 h, 100 μM [nm/s]
13 | Cc1ccc2nc(-c3ccc(F)cc3)c(CC(=O)N3CCNCC3)n2c1 [Compound 5, 2-[2-(4-Fluorophenyl)-6-methylimidazo[1,2-a]pyridin-3-yl]-1-(piperazin-1-yl)ethan-1-one] | 33.5 ± 4
14 | Cc1ccc2nc(-c3ccc(F)cc3)c(CC(=O)NC3CCNC3)n2c1 (centres unmarked) [Compound 16, 2-[2-(4-Fluorophenyl)-6-methylimidazo[1,2-a]pyridin-3-yl]-N-(pyrrolidin-3-yl)acetamide] | 1.54 ± 0.05
